Reference: patent US6610675B1 (priority 1980, dated 2003)

Tests used:
[1] = test system: thymus weight in rats; experiment: Thymus inhibition testing (subcutaneous administration); format: in vivo, rat
Method: Several further studies were undertaken to determine the effects of selected compounds of the invention on thymi weights in rats when the drugs were systemically administered. In each of these studies, male Sprague-Dawley rats were used. […] On the fifth day (48 hours following the last treatment), the animals were sacrificed and the thymi weights were recorded. […] It is evident that the higher the inhibition of thymus activity at a given dose, the more toxic the compound is.

[2] = test system: granulation tissue formation caused by implantation of cotton pellets; experiment: Granuloma formation test (local cotton pellet granuloma assay); format: in vivo, rat; settings: for ED50: dose causing 50% inhibition of granulation tissue weight; for ED60: dose causing 60% inhibition of granulation tissue weight
Method: The test compound was dissolved in acetone and aliquots of varying concentrations were injected into cotton pellets. The pellets were dried and then one pellet was implanted beneath the skin of each test rat. Six days later, the animals were sacrificed and the granulation tissue (granuloma) which formed in and around the implanted pellet was removed, dried and weighed. In addition, the thymi and adrenals were removed and weighed.

[3] = rat, in vivo, sc, 0.003 mg/kg/day
[4] = rat, in vivo, sc, 0.01 mg/kg/day
[5] = rat, in vivo, sc, 0.03 mg/kg/day
[6] = rat, in vivo, sc, 0.1 mg/kg/day
[7] = rat, in vivo, sc, 0.3 mg/kg/day
[8] = Table VIII, 10 mg/kg/day s.c., three days
[9] = chloromethyl 11β-hydroxy-17α-isopropoxycarbonyloxyandrost-4-en-3-one-17β-carboxylate = 1
[10] = Table IX, 1 mg/kg/day s.c., three days
[11] = Table IX, 3 mg/kg/day s.c., three days
[12] = Table IX, 10 mg/kg/day s.c., three days
[13] = Table IX, 30 mg/kg/day s.c., three days

CCC(=O)O[C@]1(C(=O)CCl)[C@@H](C)C[C@H]2[C@@H]3CCC4=CC(=O)C=C[C@]4(C)[C@@]3(F)[C@@H](O)C[C@@]21C [Clobetasol 17-propionate, reference compound]
Relative Potency (TED40) ([1]; rat, in vivo): 8.6 | Relative Potency (TED50) ([1]; rat, in vivo): 11.2 | TED40 ([1]; rat, in vivo, sc): 0.035 mg | TED50 ([1]; rat, in vivo, sc): 0.052 mg | Body weight gain [1, 3]: 18.3 ± 0.6 g | Thymus wt. [1, 3]: 537 ± 28 mg | Thymus wt. Inhibition [1, 3]: 2.4% | Body weight gain [1, 4]: 15.5 ± 1.1 g | Thymus wt. [1, 4]: 498 ± 15 mg | Thymus wt. Inhibition [1, 4]: 9.5% | Body weight gain [1, 5]: 12.3 ± 1.3 g | Thymus wt. [1, 5]: 363 ± 22 mg | Thymus wt. Inhibition [1, 5]: 34.0% | Body weight gain [1, 6]: -0.4 ± 1.3 g | Thymus wt. [1, 6]: 149 ± 9 mg | Thymus wt. Inhibition [1, 6]: 72.9% | Body weight gain [1, 7]: -14.3 ± 1.3 g | Thymus wt. [1, 7]: 63 ± 3 mg | Thymus wt. Inhibition [1, 7]: 88.5% | Body wt. gain ([2]; Table V-a, 1 μg/pellet): 33.0 ± 1.2 g | Granulation tissue Dry wt. ([2]; Table V-a, 1 μg/pellet): 42.0 ± 5.8 mg | Granulation tissue Dry wt. Inhibition ([2]; Table V-a, 1 μg/pellet): 47.6% | Granulation tissue Wet wt. ([2]; Table V-a, 1 μg/pellet): 401 ± 29 mg | Granulation tissue Wet wt. Inhibition ([2]; Table V-a, 1 μg/pellet): 23.6% | Thymus wt. ([2]; Table V-a, 1 μg/pellet): 478 ± 22 mg | Thymus wt. (Decrease %) ([2]; Table V-a, 1 μg/pellet): (3.4) % | Body wt. gain ([2]; Table V-a, 3 μg/pellet): 24.9 ± 1.8 g | Granulation tissue Dry wt. ([2]; Table V-a, 3 μg/pellet): 43.1 ± 8.9 mg | Granulation tissue Dry wt. Inhibition ([2]; Table V-a, 3 μg/pellet): 46.2% | Granulation tissue Wet wt. ([2]; Table V-a, 3 μg/pellet): 402 ± 40 mg | Granulation tissue Wet wt. Inhibition ([2]; Table V-a, 3 μg/pellet): 23.4% | Thymus wt. ([2]; Table V-a, 3 μg/pellet): 449 ± 21 mg | Thymus wt. (Decrease %) ([2]; Table V-a, 3 μg/pellet): (9.3) % | Body wt. gain ([2]; Table V-a, 10 μg/pellet): 25.0 ± 2.1 g | Granulation tissue Dry wt. ([2]; Table V-a, 10 μg/pellet): 37.9 ± 6.8 mg | Granulation tissue Dry wt. Inhibition ([2]; Table V-a, 10 μg/pellet): 52.7% | Granulation tissue Wet wt. ([2]; Table V-a, 10 μg/pellet): 364 ± 25 mg | Granulation tissue Wet wt. Inhibition ([2]; Table V-a, 10 μg/pellet): 30.7% | Thymus wt. ([2]; Table V-a, 10 μg/pellet): 322 ± 22 mg | Thymus wt. (Decrease %) ([2]; Table V-a, 10 μg/pellet): (34.9) % | Body wt. gain ([2]; Table V-a, 30 μg/pellet): 24.8 ± 1.1 g | Granulation tissue Dry wt. ([2]; Table V-a, 30 μg/pellet): 25.5 ± 2.1 mg | Granulation tissue Dry wt. Inhibition ([2]; Table V-a, 30 μg/pellet): 68.2% | Granulation tissue Wet wt. ([2]; Table V-a, 30 μg/pellet): 320 ± 10 mg | Granulation tissue Wet wt. Inhibition ([2]; Table V-a, 30 μg/pellet): 39.0% | Thymus wt. ([2]; Table V-a, 30 μg/pellet): 174 ± 26 mg | Thymus wt. (Decrease %) ([2]; Table V-a, 30 μg/pellet): (64.8) % | Body wt. gain ([2]; Table V-a, 100 μg/pellet): 15.9 ± 1.0 g | Granulation tissue Dry wt. ([2]; Table V-a, 100 μg/pellet): 23.9 ± 3.3 mg | Granulation tissue Dry wt. Inhibition ([2]; Table V-a, 100 μg/pellet): 70.2% | Granulation tissue Wet wt. ([2]; Table V-a, 100 μg/pellet): 325 ± 12 mg | Granulation tissue Wet wt. Inhibition ([2]; Table V-a, 100 μg/pellet): 38.1% | Thymus wt. ([2]; Table V-a, 100 μg/pellet): 84 ± 3 mg | Thymus wt. (Decrease %) ([2]; Table V-a, 100 μg/pellet): (83.0) % | ED50 [2]: >3 μg/pellet | ED60 [2]: >10 μg/pellet

CCCOC(=O)O[C@]1(C(=O)OCCl)[C@H](C)C[C@H]2[C@@H]3CCC4=CC(=O)C=C[C@]4(C)[C@@]3(F)[C@@H](O)C[C@@]21C [chloromethyl 9α-fluoro-11β-hydroxy-16α-methyl-17α-propoxycarbonyloxyandrosta-1,4-dien-3-one-17β-carboxylate]
Body weight gain [1, 8]: 2.7 ± 1.7 g | Thymus wt. [1, 8]: 277 ± 25 mg | Thymus wt. Inhibition [1, 8]: 49.6% | Body wt. gain ([2]; Table V-a, 0.3 μg/pellet): 35.6 ± 1.0 g | Granulation tissue Dry wt. ([2]; Table V-a, 0.3 μg/pellet): 55.1 ± 6.2 mg | Granulation tissue Dry wt. Inhibition ([2]; Table V-a, 0.3 μg/pellet): 31.2% | Granulation tissue Wet wt. ([2]; Table V-a, 0.3 μg/pellet): 454 ± 27 mg | Granulation tissue Wet wt. Inhibition ([2]; Table V-a, 0.3 μg/pellet): 13.5% | Thymus wt. ([2]; Table V-a, 0.3 μg/pellet): 523 ± 28 mg | Body wt. gain ([2]; Table V-a, 1 μg/pellet): 31.9 ± 0.8 g | Granulation tissue Dry wt. ([2]; Table V-a, 1 μg/pellet): 42.9 ± 5.1 mg | Granulation tissue Dry wt. Inhibition ([2]; Table V-a, 1 μg/pellet): 46.4% | Granulation tissue Wet wt. ([2]; Table V-a, 1 μg/pellet): 415 ± 30 mg | Granulation tissue Wet wt. Inhibition ([2]; Table V-a, 1 μg/pellet): 21.0% | Thymus wt. ([2]; Table V-a, 1 μg/pellet): 453 ± 21 mg | Body wt. gain ([2]; Table V-a, 3 μg/pellet): 34.1 ± 1.9 g | Granulation tissue Dry wt. ([2]; Table V-a, 3 μg/pellet): 29.7 ± 3.2 mg | Granulation tissue Dry wt. Inhibition ([2]; Table V-a, 3 μg/pellet): 62.9% | Granulation tissue Wet wt. ([2]; Table V-a, 3 μg/pellet): 360 ± 18 mg | Granulation tissue Wet wt. Inhibition ([2]; Table V-a, 3 μg/pellet): 31.4% | Thymus wt. ([2]; Table V-a, 3 μg/pellet): 504 ± 42 mg | Body wt. gain ([2]; Table V-a, 10 μg/pellet): 33.1 ± 1.6 g | Granulation tissue Dry wt. ([2]; Table V-a, 10 μg/pellet): 28.5 ± 2.8 mg | Granulation tissue Dry wt. Inhibition ([2]; Table V-a, 10 μg/pellet): 64.4% | Granulation tissue Wet wt. ([2]; Table V-a, 10 μg/pellet): 350 ± 13 mg | Granulation tissue Wet wt. Inhibition ([2]; Table V-a, 10 μg/pellet): 33.3% | Thymus wt. ([2]; Table V-a, 10 μg/pellet): 547 ± 26 mg | Relative potency (ED40) [2, 9]: 529 | Relative potency (ED60) [2, 9]: 277 | ED40 ([2]; dose causing 40% inhibition of granulation tissue weight): 0.58 μg/pellet | ED50 [2]: 1.20 μg/pellet | ED60 [2]: 2.49 μg/pellet

CC(C)OC(=O)O[C@]1(C(=O)OCCl)[C@H](C)C[C@H]2[C@@H]3CCC4=CC(=O)C=C[C@]4(C)[C@@]3(F)[C@@H](O)C[C@@]21C [chloromethyl 9α-fluoro-11β-hydroxy-17α-isopropoxycarbonyloxy-16α-methylandrosta-1,4-dien-3-one-17β-carboxylate]
Body weight gain [1, 8]: 2.7 ± 1.9 g | Thymus wt. [1, 8]: 234 ± 31 mg | Thymus wt. Inhibition [1, 8]: 57.5%

CC(C)OC(=O)O[C@]1(C(=O)OCCl)[C@@H](C)C[C@H]2[C@@H]3CCC4=CC(=O)C=C[C@]4(C)[C@@]3(F)C(=O)C[C@@]21C [chloromethyl 9α-fluoro-17α-isopropoxycarbonyloxy-16β-methylandrosta-1,4-dien-3,11-dione-17β-carboxylate]
Body wt. gain ([2]; Table V-b, 1 μg/pellet): 28.9 ± 1.1 g | Dry granulation Tissue ([2]; Table V-b, 1 μg/pellet): 59.1 ± 5.8 mg | Dry granulation Tissue Inhibition ([2]; Table V-b, 1 μg/pellet): 12.1% | Thymus wt. ([2]; Table V-b, 1 μg/pellet): 441 ± 24 mg | Body wt. gain ([2]; Table V-b, 3 μg/pellet): 25.8 ± 0.9 g | Dry granulation Tissue ([2]; Table V-b, 3 μg/pellet): 49.4 ± 3.7 mg | Dry granulation Tissue Inhibition ([2]; Table V-b, 3 μg/pellet): 26.5% | Thymus wt. ([2]; Table V-b, 3 μg/pellet): 519 ± 31 mg | Body wt. gain ([2]; Table V-b, 10 μg/pellet): 28.4 ± 0.8 g | Dry granulation Tissue ([2]; Table V-b, 10 μg/pellet): 51.1 ± 5.8 mg | Dry granulation Tissue Inhibition ([2]; Table V-b, 10 μg/pellet): 24.0% | Thymus wt. ([2]; Table V-b, 10 μg/pellet): 547 ± 35 mg | Body wt. gain ([2]; Table V-b, 30 μg/pellet): 27.4 ± 0.9 g | Dry granulation Tissue ([2]; Table V-b, 30 μg/pellet): 40.6 ± 3.6 mg | Dry granulation Tissue Inhibition ([2]; Table V-b, 30 μg/pellet): 39.6% | Thymus wt. ([2]; Table V-b, 30 μg/pellet): 536 ± 24 mg

CCCCCOC(=O)O[C@]1(C(=O)OCCl)[C@H](C)C[C@H]2[C@@H]3CCC4=CC(=O)C=C[C@]4(C)[C@@]3(F)[C@@H](O)C[C@@]21C [chloromethyl 9β-fluoro-11β-hydroxy-16α-methyl-17α-pentyloxycarbonyloxyandrosta-1,4-dien-3-one-17β-carboxylate]
Body weight gain [1, 10]: 18.0 ± 1.5 g | Thymus wt. [1, 10]: 387 ± 23 mg | Thymus wt. Decrease [1, 10]: 9.2% | Body weight gain [1, 11]: 15.6 ± 1.3 g | Thymus wt. [1, 11]: 347 ± 15 mg | Thymus wt. Decrease [1, 11]: 18.5% | Body weight gain [1, 12]: 17.4 ± 1.5 g | Thymus wt. [1, 12]: 357 ± 22 mg | Thymus wt. Decrease [1, 12]: 16.2% | Body weight gain [1, 13]: 13.5 ± 1.0 g | Thymus wt. [1, 13]: 335 ± 17 mg | Thymus wt. Decrease [1, 13]: 21.4%

CCOC(=O)O[C@]1(C(=O)OCCl)[C@H](C)C[C@H]2[C@@H]3CCC4=CC(=O)C=C[C@]4(C)[C@@]3(F)C(=O)C[C@@]21C [chloromethyl 17α-ethoxycarbonyloxy-9α-fluoro-16α-methylandrosta-1,4-dien-3,11-dione-17β-carboxylate]
Body wt. gain ([2]; Table V-b, 1 μg/pellet): 23.7 ± 1.5 g | Dry granulation Tissue ([2]; Table V-b, 1 μg/pellet): 55.3 ± 2.6 mg | Dry granulation Tissue Inhibition ([2]; Table V-b, 1 μg/pellet): 17.7% | Thymus wt. ([2]; Table V-b, 1 μg/pellet): 459 ± 41 mg | Body wt. gain ([2]; Table V-b, 3 μg/pellet): 25.6 ± 1.2 g | Dry granulation Tissue ([2]; Table V-b, 3 μg/pellet): 51.6 ± 5.9 mg | Dry granulation Tissue Inhibition ([2]; Table V-b, 3 μg/pellet): 23.2% | Thymus wt. ([2]; Table V-b, 3 μg/pellet): 467 ± 21 mg | Body wt. gain ([2]; Table V-b, 10 μg/pellet): 26.5 ± 2.5 g | Dry granulation Tissue ([2]; Table V-b, 10 μg/pellet): 41.5 ± 4.7 mg | Dry granulation Tissue Inhibition ([2]; Table V-b, 10 μg/pellet): 38.2% | Thymus wt. ([2]; Table V-b, 10 μg/pellet): 544 ± 31 mg | Body wt. gain ([2]; Table V-b, 30 μg/pellet): 20.3 ± 0.9 g | Dry granulation Tissue ([2]; Table V-b, 30 μg/pellet): 39.9 ± 3.6 mg | Dry granulation Tissue Inhibition ([2]; Table V-b, 30 μg/pellet): 40.6% | Thymus wt. ([2]; Table V-b, 30 μg/pellet): 463 ± 24 mg
